Test results as given in patent publication US10087185B2 (Janssen Pharmaceutica NV, priority 2016, dated 2018).
pIC50: −log10 of the molar value.

Biological target: TARP γ8 dependent AMPA receptor (GRIA1o-CACNG8 fusion construct) (Homo sapiens (Human), UniProt P42261+Q8WXS5)
Assay: Calcium flux assay (FLIPR), inhibition of glutamate response of GluA1o-γ8 channel
Format: cell-based
Details: HEK293 cells stably expressing GRIA1o-CACNG8 fusion; calcium flux after 15 μM glutamate; negative log of the IC50 in molar
Source text: This assay was used to test compounds for their ability to inhibit TARP γ8 dependent AMPA receptor activity. The AMPA receptor is a non-selective cation channel activated by glutamate. […] But, this desensitization is incomplete, and a substantial steady-state current remains in the sustained presence of glutamate (Cho et al. (2007). “Two families of TARP isoforms that have distinct effects on the kinetic properties of AMPA receptors and synaptic currents.” Neuron 55(6): 890-904).
An in vitro assay was used to determine the potency of test compounds as inhibitors of the glutamate response of the channel formed by GluA10-γ8. To ensure a 1:1 stoichiometry of GluA1o and γ8 subunits in the expressed channel, a fusion of the cDNAs for GRIA1o and CACNG8 was used. Following Shi et al (2009) “The stoichiometry of AMPA receptors and TARPs varies by neuronal cell type.” Neuron 62(5): 633-640), the C-terminus of the cDNA for GRIA1o was fused to the N-terminus of the cDNA for γ8. The linker sequence was […]. Channels expressed with this construct appear to have similar properties to channels formed by co-expression of GRIA1o with an excess of CACNG8 (Shi et al. 2009). A clonal cell line in HEK293 cells stably expressing this construct, with a geneticin selection marker, was generated for use in this assay.
Cell expressing the GRIA1o-CACNG8 fusion construct were grown in a monolayer in 96- or 384-well microtiter plates. They were washed with assay buffer (135 mM NaCl, 4 mM KCl, 3 mM CaCl2, 1 mM MgCl2, 5 mM glucose, 10 mM HEPES, pH 7.4, 300 mOs) using a Biotek EL405 plate washer. The cells were then loaded with a calcium-sensitive dye (Calcium-5 or Calcium-6, Molecular Devices) and the test compounds at a range of concentrations. Calcium flux following the addition of 15 μM glutamate was monitored using a Molecular Devices FLIPR Tetra.
The fluorescence in each well was normalized to the fluorescence of negative and positive control wells. The negative control wells had no added compounds, and the positive control wells had been incubated with 10 μM CP465022 (a non-subtype-selective AMPA receptor antagonist) (Lazzaro et al. (2002). “Functional characterization of CP-465,022, a selective, noncompetitive AMPA receptor antagonist.” Neuropharmacology 42(2): 143-153). The responses to glutamate as functions of the test compound concentrations were fitted to a four-parameter logistic function. The fitted parameter corresponding to the midpoint was taken to be the potency of inhibition of the compound. The data in Table 4 below illustrates the observed potency for the compounds described herein. pIC50 refers to the negative log of the IC50 in molar.

Chain of TARP γ8 dependent AMPA receptor (GRIA1o-CACNG8 fusion construct) (P42261 other isoform, or with tags, fused parts or gaps): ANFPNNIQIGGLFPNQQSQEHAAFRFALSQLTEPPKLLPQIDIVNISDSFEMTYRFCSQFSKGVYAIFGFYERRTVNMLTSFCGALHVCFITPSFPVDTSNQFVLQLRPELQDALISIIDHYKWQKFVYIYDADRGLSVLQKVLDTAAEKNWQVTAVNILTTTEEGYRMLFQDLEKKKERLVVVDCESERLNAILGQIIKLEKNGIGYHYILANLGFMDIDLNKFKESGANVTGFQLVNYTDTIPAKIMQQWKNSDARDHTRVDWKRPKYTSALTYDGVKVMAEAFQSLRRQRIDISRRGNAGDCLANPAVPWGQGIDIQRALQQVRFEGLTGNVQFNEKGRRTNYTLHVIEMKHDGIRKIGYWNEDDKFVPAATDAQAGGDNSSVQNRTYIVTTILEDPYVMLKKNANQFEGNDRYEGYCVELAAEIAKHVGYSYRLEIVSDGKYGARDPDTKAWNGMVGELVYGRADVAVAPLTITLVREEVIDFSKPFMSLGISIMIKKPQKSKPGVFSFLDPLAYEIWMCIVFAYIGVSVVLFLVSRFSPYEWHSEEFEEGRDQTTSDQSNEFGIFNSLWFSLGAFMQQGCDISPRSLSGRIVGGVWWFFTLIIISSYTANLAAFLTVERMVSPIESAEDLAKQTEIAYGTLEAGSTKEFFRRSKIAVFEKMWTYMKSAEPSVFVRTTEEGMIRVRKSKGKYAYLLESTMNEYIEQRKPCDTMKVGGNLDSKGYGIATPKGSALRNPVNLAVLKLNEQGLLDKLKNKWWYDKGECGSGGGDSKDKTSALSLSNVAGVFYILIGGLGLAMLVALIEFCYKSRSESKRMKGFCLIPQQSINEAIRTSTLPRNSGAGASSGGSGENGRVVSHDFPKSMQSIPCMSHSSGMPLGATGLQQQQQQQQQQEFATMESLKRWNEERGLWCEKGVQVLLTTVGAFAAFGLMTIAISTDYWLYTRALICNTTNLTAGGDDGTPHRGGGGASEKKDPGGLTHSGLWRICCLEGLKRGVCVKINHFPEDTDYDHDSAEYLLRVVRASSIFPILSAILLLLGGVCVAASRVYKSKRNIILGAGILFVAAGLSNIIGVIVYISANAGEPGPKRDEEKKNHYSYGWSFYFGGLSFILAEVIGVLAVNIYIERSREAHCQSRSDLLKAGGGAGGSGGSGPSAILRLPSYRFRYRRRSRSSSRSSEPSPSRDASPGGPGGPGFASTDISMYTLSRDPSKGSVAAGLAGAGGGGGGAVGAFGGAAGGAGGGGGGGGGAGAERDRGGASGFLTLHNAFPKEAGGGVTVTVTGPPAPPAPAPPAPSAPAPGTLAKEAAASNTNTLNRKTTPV

Compound	pIC50
FC(F)(F)c1nc2ccc(C(F)(F)F)c(-c3cc(Cl)c4[nH]ncc4c3)n2n1 [Example 1, 5-(7-Chloro-1H-indazol-5-yl)-2,6-bis(trifluoromethyl)-[1,2,4]triazolo[1,5-a]pyridine]	10.10
Cc1cc(-c2c(C(F)(F)F)ccc3nc(C(F)(F)F)nn23)cc2cn[nH]c12 [Example 2, 5-(7-Methyl-1H-indazol-5-yl)-2,6-bis(trifluoromethyl)-[1,2,4]triazolo[1,5-a]pyridine]	9.70
O=C1Cc2cc(-c3c(C(F)(F)F)ccc4nc(C(F)(F)F)nn34)cc(Cl)c2N1 [Example 3, 5-(2,6-Bis(trifluoromethyl)-[1,2,4]triazolo[1,5-a]pyridin-5-yl)-7-chloroindolin-2-one]	9.60
Cc1cc(-c2c(C(F)(F)F)ccc3nc(C(F)(F)F)nn23)cc2c1NC(=O)C2 [Example 4, 5-(2,6-Bis(trifluoromethyl)-[1,2,4]triazolo[1,5-a]pyridin-5-yl)-7-methylindolin-2-one]	9.30
FC(F)(F)c1nc2c(Cl)cc(C(F)(F)F)c(-c3cc(Cl)c4[nH]ncc4c3)n2n1 [Example 5, 8-Chloro-5-(7-chloro-1H-indazol-5-yl)-2,6-bis(trifluoromethyl)-[1,2,4]triazolo[1,5-a]pyridine]	9.50
Cc1cc(C(F)(F)F)c(-c2cc(Cl)c3[nH]ncc3c2)n2nc(C(F)(F)F)nc12 [Example 6, 5-(7-Chloro-1H-indazol-5-yl)-8-methyl-2,6-bis(trifluoromethyl)-[1,2,4]triazolo[1,5-a]pyridine]	9.70
FC(F)c1nc2ccc(C(F)(F)F)c(-c3cc(Cl)c4[nH]ncc4c3)n2n1 [Example 7, 5-(7-Chloro-1H-indazol-5-yl)-2-(difluoromethyl)-6-(trifluoromethyl)-[1,2,4]triazolo[1,5-a]pyridine]	10.20
Cc1cc(-c2c(C(F)(F)F)ccc3nc(C(F)F)nn23)cc2cn[nH]c12 [Example 8, 5-(7-Methyl-1H-indazol-5-yl)-2-(difluoromethyl)-6-(trifluoromethyl)-[1,2,4]triazolo[1,5-a]pyridine]	9.40
O=C1Cc2cc(-c3c(C(F)(F)F)ccc4nc(C(F)F)nn34)cc(Cl)c2N1 [Example 9, 7-Chloro-5-(2-(difluoromethyl)-6-(trifluoromethyl)-[1,2,4]triazolo[1,5-a]pyridin-5-yl)indolin-2-one]	9.40
Cc1cc(-c2c(C(F)(F)F)ccc3nc(C(F)F)nn23)cc2c1NC(=O)C2 [Example 10, 7-Methyl-5-(2-(difluoromethyl)-6-(trifluoromethyl)-[1,2,4]triazolo[1,5-a]pyridin-5-yl)indolin-2-one]	9.10
FC(F)c1nc2ccc(C(F)(F)F)c(-c3cc(C(F)(F)F)c4[nH]ncc4c3)n2n1 [Example 11, 2-(Difluoromethyl)-6-(trifluoromethyl)-5-(7-(trifluoromethyl)-1H-indazol-5-yl)-[1,2,4]triazolo[1,5-a]pyridine]	9.80
COc1cc(-c2c(C(F)(F)F)ccc3nc(C(F)F)nn23)cc2c1NC(=O)C2 [Example 12, 5-(2-(Difluoromethyl)-6-(trifluoromethyl)-[1,2,4]triazolo[1,5-a]pyridin-5-yl)-7-methoxyindolin-2-one]	8.30
COc1ccc2nc(C(F)F)nn2c1-c1cc(Cl)c2[nH]ncc2c1 [Example 13, 5-(7-Chloro-1H-indazol-5-yl)-2-(difluoromethyl)-6-methoxy-[1,2,4]triazolo[1,5-a]pyridine]	8.30
COc1ccc2nc(C(F)F)nn2c1-c1cc(C)c2[nH]ncc2c1 [Example 14, 2-(Difluoromethyl)-6-methoxy-5-(7-methyl-1H-indazol-5-yl)-[1,2,4]triazolo[1,5-a]pyridine]	8.30
COc1ccc2nc(C(F)F)nn2c1-c1cc(C(F)(F)F)c2[nH]ncc2c1 [Example 15, 2-(Difluoromethyl)-6-methoxy-5-(7-(trifluoromethyl)-1H-indazol-5-yl)-[1,2,4]triazolo[1,5-a]pyridine]	8.70
FC(F)c1ccc2nc(C(F)(F)F)nn2c1-c1cc(Cl)c2[nH]ncc2c1 [Example 16, 5-(7-Chloro-1H-indazol-5-yl)-6-(difluoromethyl)-2-(trifluoromethyl)-[1,2,4]triazolo[1,5-a]pyridine]	10.00

Compound	pIC50
Cc1cc(-c2c(C(F)F)ccc3nc(C(F)(F)F)nn23)cc2cn[nH]c12 [Example 17, 6-(Difluoromethyl)-5-(7-methyl-1H-indazol-5-yl)-2-(trifluoromethyl)-[1,2,4]triazolo[1,5-a]pyridine]	9.80
O=C1Cc2cc(-c3c(C(F)F)ccc4nc(C(F)(F)F)nn34)cc(Cl)c2N1 [Example 18, 7-Chloro-5-(6-(difluoromethyl)-2-(trifluoromethyl)-[1,2,4]triazolo[1,5-a]pyridin-5-yl)indolin-2-one]	9.60
Cc1cc(-c2c(C(F)F)ccc3nc(C(F)(F)F)nn23)cc2c1NC(=O)C2 [Example 19, 5-[6-(Difluoromethyl)-2-(trifluoromethyl)-[1,2,4]triazolo[1,5-a]pyridin-5-yl]-7-methyl-indolin-2-one]	9.20
COc1cc(-c2c(C(F)F)ccc3nc(C(F)(F)F)nn23)cc2c1NC(=O)C2 [Example 20, 5-[6-(Difluoromethyl)-2-(trifluoromethyl)-[1,2,4]triazolo[1,5-a]pyridin-5-yl]-7-methoxy-indolin-2-one]	8.60
Cc1nc2ccc(C(F)(F)F)c(-c3cc(Cl)c4[nH]ncc4c3)n2n1 [Example 21, 5-(7-Chloro-1H-indazol-5-yl)-2-methyl-6-(trifluoromethyl)-[1,2,4]triazolo[1,5-a]pyridine]	9.20
Cc1nc2ccc(C(F)(F)F)c(-c3cc(C)c4[nH]ncc4c3)n2n1 [Example 22, 2-Methyl-5-(7-methyl-1H-indazol-5-yl)-6-(trifluoromethyl)-[1,2,4]triazolo[1,5-a]pyridine]	7.90
Cc1nc2ccc(C(F)(F)F)c(-c3cc(Cl)c4c(c3)CC(=O)N4)n2n1 [Example 23, 7-Chloro-5-(2-methyl-6-(trifluoromethyl)-[1,2,4]triazolo[1,5-a]pyridin-5-yl)indolin-2-one]	8.00
Cc1nc2ccc(C(F)(F)F)c(-c3cc(C)c4c(c3)CC(=O)N4)n2n1 [Example 24, 7-Methyl-5-(2-methyl-6-(trifluoromethyl)-[1,2,4]triazolo[1,5-a]pyridin-5-yl)indolin-2-one]	7.70
CCc1nc2ccc(C(F)(F)F)c(-c3cc(Cl)c4[nH]ncc4c3)n2n1 [Example 25, 5-(7-Chloro-1H-indazol-5-yl)-2-ethyl-6-(trifluoromethyl)-[1,2,4]triazolo[1,5-a]pyridine]	9.40
CCc1nc2ccc(C(F)(F)F)c(-c3cc(C)c4[nH]ncc4c3)n2n1 [Example 26, 2-Ethyl-5-(7-methyl-1H-indazol-5-yl)-6-(trifluoromethyl)-[1,2,4]triazolo[1,5-a]pyridine]	9.00
CCc1nc2ccc(C(F)(F)F)c(-c3cc(Cl)c4c(c3)CC(=O)N4)n2n1 [Example 27, 7-Chloro-5-(2-ethyl-6-(trifluoromethyl)-[1,2,4]triazolo[1,5-a]pyridin-5-yl)indolin-2-one]	8.90
CCc1nc2ccc(C(F)(F)F)c(-c3cc(C)c4c(c3)CC(=O)N4)n2n1 [Example 28, 5-(2-Ethyl-6-(trifluoromethyl)-[1,2,4]triazolo[1,5-a]pyridin-5-yl)-7-methylindolin-2-one]	8.40
CCc1nc2c(Cl)cc(C(F)(F)F)c(-c3cc(Cl)c4[nH]ncc4c3)n2n1 [Example 29, 8-Chloro-5-(7-chloro-1H-indazol-5-yl)-2-ethyl-6-(trifluoromethyl)-[1,2,4]triazolo[1,5-a]pyridine]	9.40
CCc1nc2c(Cl)cc(C(F)(F)F)c(-c3cc(C)c4[nH]ncc4c3)n2n1 [Example 30, 8-Chloro-2-ethyl-5-(7-methyl-1H-indazol-5-yl)-6-(trifluoromethyl)-[1,2,4]triazolo[1,5-a]pyridine]	8.40
CCc1nc2c(F)cc(C(F)(F)F)c(-c3cc(Cl)c4[nH]ncc4c3)n2n1 [Example 31, 5-(7-Chloro-1H-indazol-5-yl)-2-ethyl-8-fluoro-6-(trifluoromethyl)-[1,2,4]triazolo[1,5-a]pyridine]	8.90
